Data reported in patent US10294202B2, “Pyrrolidinones as herbicides” (FMC Corporation, priority 2013, dated 2019).

Tests used:
johnsongrass = test: Test C pre-/postemergence herbicide test; assay type: in vivo, Sorghum halepense
Procedure, shortened: (§1)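 Pre- and postemergence greenhouse screen. Preemergence treatment went onto freshly planted seeds in loam–sand soil; postemergence treatment went onto plants 2 to 18 cm tall at the 1- to 4-leaf stage in sphagnum peat/vermiculite medium. Scoring at 13 to 15 days used a 0–100 control scale.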

ragweed = test: Test C pre-/postemergence herbicide test; assay type: in vivo, Ambrosia elatior
Procedure, shortened: as §1

wheat = test: Test A pre-/postemergence herbicide test; assay type: in vivo, Triticum aestivum; details: Postemergence
Procedure, shortened: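 Visual injury ratings, 0 = no effect, 100 = complete control, taken ~10 days after treatment against untreated greenhouse controls. Preemergence: directed soil spray onto seeded loam/sand pots. Postemergence: spray onto plants at one- to two-leaf stage, 2–10 cm tall.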

oilseed rape = test: Test C pre-/postemergence herbicide test; assay type: in vivo, Brassica napus
Procedure, shortened: as §1

barnyardgrass = test: Test B flooded paddy test; assay type: in vivo, Echinochloa crus-galli; details: 500 g ai/ha, Flood; scale of 0 to 100 where 0 is no effect and 100 is complete control
Procedure, shortened: (§2)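 Paddy-water application at a 3 cm flood, young plants having two leaves. Water level maintained; greenhouse, 13–15 days; visual 0–100 control rating.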

rice = test: Test B flooded paddy test; assay type: in vivo, Oryza sativa; details: 500 g ai/ha, Flood; scale of 0 to 100 where 0 is no effect and 100 is complete control
Procedure, shortened: as §2

soybean = test: Test C pre-/postemergence herbicide test; assay type: in vivo, Glycine max
Procedure, shortened: as §1

corn = test: Test C pre-/postemergence herbicide test; assay type: in vivo, Zea mays
Procedure, shortened: as §1

nutsedge, yellow = test: Test C pre-/postemergence herbicide test; assay type: in vivo, Cyperus esculentus
Procedure, shortened: as §1

pigweed = test: Test C pre-/postemergence herbicide test; assay type: in vivo, Amaranthus retroflexus
Procedure, shortened: as §1

sedge, umbrella = test: Test B flooded paddy test; assay type: in vivo, Cyperus difformis; details: 500 g ai/ha, Flood; scale of 0 to 100 where 0 is no effect and 100 is complete control
Procedure, shortened: as §2

ducksalad = test: Test B flooded paddy test; assay type: in vivo, Heteranthera limosa; details: 500 g ai/ha, Flood; scale of 0 to 100 where 0 is no effect and 100 is complete control
Procedure, shortened: as §2

ryegrass, Italian = test: Test C pre-/postemergence herbicide test; assay type: in vivo, Lolium multiflorum
Procedure, shortened: as §1

[1] = Preemergence, 31 g ai/ha, scale 0 to 100, 0 is no effect and 100 is complete control
[2] = Preemergence, 62 g ai/ha, scale 0 to 100 (0 no effect, 100 complete control)
[3] = Preemergence, 125 g ai/ha, scale 0 to 100 (0 no effect, 100 complete control)
[4] = Postemergence, 31 g ai/ha, scale 0 to 100 (0 no effect, 100 complete control)
[5] = Postemergence, 62 g ai/ha, scale 0 (no effect) to 100 (complete control)
[6] = Postemergence, 125 g ai/ha, scale 0 to 100 (0 no effect, 100 complete control)
[7] = Postemergence, 250 g ai/ha, scale 0 to 100 (0 no effect, 100 complete control)

O=C(Nc1ccccc1F)C1C(=S)NCC1c1cccc(C(F)(F)F)c1 (centres unmarked) [Compound 274]
40: Plant response rating, Wheat (wheat; 1000 g ai/ha, 0 to 100 scale (0 no effect, 100 complete control))
45: Plant response rating (scale of 0 to 100), Corn (corn; Preemergence, 250 g ai/ha)
10: Plant response rating, Corn (corn; [3])
30: Plant response rating (scale of 0 to 100), Johnsongrass (johnsongrass; Preemergence, 250 g ai/ha) | Plant response rating (scale of 0 to 100), Oilseed Rape (oilseed rape; Preemergence, 250 g ai/ha) | Plant response rating (scale of 0 to 100), Ryegrass, Italian (ryegrass, Italian; Preemergence, 250 g ai/ha)
5: Plant response rating, Oilseed Rape (oilseed rape; [3]) | Plant response rating, Soybean (soybean; [3]) | Corn plant response rating (corn; [2]) | Plant response rating, Ryegrass, Italian (ryegrass, Italian; [3])
35: Plant response rating, Ducksalad (ducksalad)
0: Johnsongrass plant response rating (johnsongrass; [1]) | Johnsongrass plant response rating (johnsongrass; [2]) | Plant response rating, Johnsongrass (johnsongrass; [3]) | Ragweed plant response rating (ragweed; [2]) | Plant response rating, Ragweed (ragweed; [3]) | Plant response rating (scale of 0 to 100), Ragweed (ragweed; Preemergence, 250 g ai/ha) | Plant response rating, Wheat (wheat; 125 g ai/ha, visual rating on 0 to 100 scale (0 no effect, 100 complete control), approx. 10 days) | Oilseed Rape plant response rating (oilseed rape; [1]) | Oilseed Rape plant response rating (oilseed rape; [2]) | Plant response rating, Barnyardgrass (barnyardgrass) | Plant response rating, Rice (rice) | Soybean plant response rating (soybean; [1]) | Soybean plant response rating (soybean; [2]) | Plant response rating (scale of 0 to 100), Soybean (soybean; Preemergence, 250 g ai/ha) | Corn plant response rating (corn; [1]) | Nutsedge, Yellow plant response rating (nutsedge, yellow; [1]) | Nutsedge, Yellow plant response rating (nutsedge, yellow; [2]) | Plant response rating, Nutsedge, Yellow (nutsedge, yellow; [3]) | Plant response rating (scale of 0 to 100), Nutsedge, Yellow (nutsedge, yellow; Preemergence, 250 g ai/ha) | Pigweed plant response rating (pigweed; [1]) | Pigweed plant response rating (pigweed; [2]) | Plant response rating, Pigweed (pigweed; [3]) | Plant response rating (scale of 0 to 100), Pigweed (pigweed; Preemergence, 250 g ai/ha) | Plant response rating, Sedge, Umbrella (sedge, umbrella) | Ryegrass, Italian plant response rating (ryegrass, Italian; [1]) | Ryegrass, Italian plant response rating (ryegrass, Italian; [2])

O=C1NCC(c2ccc(C(F)(F)F)cc2)C1C(=O)Nc1ccc(F)c(F)c1F (centres unmarked) [Compound 232]
40: Plant response rating, Oilseed Rape (oilseed rape; [7]) | Plant response rating, Ryegrass, Italian (ryegrass, Italian; [7]) | Plant response rating (scale of 0 to 100), Ryegrass, Italian (ryegrass, Italian; Preemergence, 250 g ai/ha)
50: Wheat plant response rating (0 to 100 scale, 0 is no effect, 100 is complete control) (wheat; 500 g ai/ha) | Plant response rating, Oilseed Rape (oilseed rape; [5]) | Plant response rating, Oilseed Rape (oilseed rape; [3])
35: Corn plant response rating (corn; [2])
10: Plant response rating, Soybean (soybean; [5]) | Plant response rating, Soybean (soybean; [6])
5: Plant response rating (scale of 0 to 100), Soybean (soybean; Preemergence, 250 g ai/ha) | Plant response rating, Nutsedge, Yellow (nutsedge, yellow; [6]) | Plant response rating, Nutsedge, Yellow (nutsedge, yellow; [7])
0: Plant response rating, Johnsongrass (johnsongrass; [4]) | Johnsongrass plant response rating (johnsongrass; [1]) | Plant response rating, Oilseed Rape (oilseed rape; [4]) | Plant response rating, Soybean (soybean; [4]) | Soybean plant response rating (soybean; [1]) | Soybean plant response rating (soybean; [2]) | Plant response rating, Soybean (soybean; [3]) | Plant response rating, Corn (corn; [4]) | Plant response rating, Corn (corn; [5]) | Plant response rating, Corn (corn; [6]) | Plant response rating, Corn (corn; [7]) | Corn plant response rating (corn; [1]) | Plant response rating, Nutsedge, Yellow (nutsedge, yellow; [4]) | Plant response rating, Nutsedge, Yellow (nutsedge, yellow; [5]) | Nutsedge, Yellow plant response rating (nutsedge, yellow; [1]) | Nutsedge, Yellow plant response rating (nutsedge, yellow; [2]) | Plant response rating, Nutsedge, Yellow (nutsedge, yellow; [3]) | Plant response rating, Sedge, Umbrella (sedge, umbrella) | Plant response rating, Ryegrass, Italian (ryegrass, Italian; [4]) | Plant response rating, Ryegrass, Italian (ryegrass, Italian; [5]) | Plant response rating, Ryegrass, Italian (ryegrass, Italian; [6]) | Ryegrass, Italian plant response rating (ryegrass, Italian; [1]) | Ryegrass, Italian plant response rating (ryegrass, Italian; [2])
60: Plant response rating, Johnsongrass (johnsongrass; [3])
30: Plant response rating, Wheat (wheat; 125 g ai/ha, 0 to 100 scale, 0 is no effect, 100 is complete control) | Oilseed Rape plant response rating (oilseed rape; [1]) | Oilseed Rape plant response rating (oilseed rape; [2])
85: Plant response rating, Ragweed (ragweed; [6]) | Ragweed plant response rating (ragweed; [2]) | Plant response rating, Ragweed (ragweed; [3]) | Plant response rating (scale of 0 to 100), Oilseed Rape (oilseed rape; Preemergence, 250 g ai/ha) | Plant response rating, Barnyardgrass (barnyardgrass) | Plant response rating, Pigweed (pigweed; [5]) | Plant response rating, Pigweed (pigweed; [6]) | Plant response rating, Pigweed (pigweed; [7]) | Pigweed plant response rating (pigweed; [1]) | Pigweed plant response rating (pigweed; [2]) | Plant response rating, Pigweed (pigweed; [3])
75: Plant response rating, Ragweed (ragweed; [4]) | Plant response rating, Ragweed (ragweed; [7]) | Plant response rating (scale of 0 to 100), Corn (corn; Preemergence, 250 g ai/ha)
25: Plant response rating, Johnsongrass (johnsongrass; [7])
65: Ragweed plant response rating (ragweed; [1]) | Plant response rating, Oilseed Rape (oilseed rape; [6])
100: Plant response rating (scale of 0 to 100), Nutsedge, Yellow (nutsedge, yellow; Preemergence, 250 g ai/ha) | Plant response rating, Ducksalad (ducksalad)
95: Plant response rating (scale of 0 to 100), Pigweed (pigweed; Preemergence, 250 g ai/ha)
70: Plant response rating (scale of 0 to 100), Johnsongrass (johnsongrass; Preemergence, 250 g ai/ha) | Plant response rating, Corn (corn; [3])
20: Plant response rating, Johnsongrass (johnsongrass; [5]) | Plant response rating, Johnsongrass (johnsongrass; [6]) | Johnsongrass plant response rating (johnsongrass; [2]) | Plant response rating, Rice (rice) | Plant response rating, Soybean (soybean; [7]) | Plant response rating, Ryegrass, Italian (ryegrass, Italian; [3])
90: Plant response rating (scale of 0 to 100), Ragweed (ragweed; Preemergence, 250 g ai/ha)
80: Plant response rating, Ragweed (ragweed; [5]) | Plant response rating, Pigweed (pigweed; [4])
